Read-outs that look alike come from different tables or passages of the source.
Tests used:
[1] = Absorption by percutaneous administration in rats; type: in vivo; settings: hairless rats, Dose 10 mg/kg; for MRT / Tmax: rat
Procedure: Abdominal skin of hairless rats (eight weeks age, Nippon SLC) was wiped with 70% ethanol, and 0.25 ml/kg of a drug solution (40 mg/ml DMSO) was applied to an area of 8 cm^2 (2 x 4 cm) and the applied area was coated with a film coating agent (Permiaid S, Nitto Medical) and fixed with an adhesive bandage (Elastopore, Nichiban). After application of the drug solution, aliquot of blood was collected from time to time using a heparin-treated syringe from jugular vein and centrifuged to give plasma. Aliquot plasma was extracted with tert-butyl-methyl-ether three times, and the organic phase was evaporated to dryness and dissolved in the initial solvent for HPLC. A certain amount thereof was injected into a HPLC connected to an ultraviolet absorption detector and the drug concentration in the plasma was measured by means of a reversed phase column. Pharmacokinetic parameters were calculated from the measured data by the same manner as in Experiment 3.

[2] = Absorption upon intranasal administration to rats; type: in vivo, Male wistar rats; settings: for MRT as compared with oral administration / Tmax as compared with oral administration / bioavailability: intranasal administration; for MAT / MRT / Tmax: intranasal; for bioavailability / MRT / Tmax: male, Wistar, rat, inhaled or intranasal
From the text: Male wistar rats (eight weeks age) were anesthetized by intraperitoneal injection of 1 g/kg of urethane. Neck was incised to expose a trachea and polyethylene tube (SP 120; Natsume Seisakusho) was inserted into the trachea. Then a part of esophagus was opened by cutting and a polyethylene tube of the same diameter was inserted to the direction of choana and the end was tightly sealed with absorbent cotton and adhesive. In order to prevent a leakage of drug solution from nasopalatine canal, said canal of upper chin opening to mouth was closed by synthetic adhesive. The drug was dissolved in a 0.1% tartaric acid solution and the drug of 500 µl/kg was administered by a micropipette from outer nasal cavity followed by closing both outer nasal cavities immediately. As a control, the rat to which the drug was intravenously injected was prepared. After the injection; aliquot of blood was collected from time to time from jugular vein using a heparin-treated syringe and centrifuged to give plasma. Certain amount of the resulting plasma was collected, extracted with tert-butyl-methyl-ether three times, and the organic phase was evaporated to dryness and dissolved in the initial solvent for HPLC. A certain amount thereof was injected into an HPLC connected to an ultraviolet absorption detector and the drug concentration in the plasma was measured by reversed phase column. Time for arriving the maximum blood concentration (Tmax), mean residence time (MRT) and mean absorption time (MAT) were calculated from the measured value.

PDE type V = target: T1, PDE type V (Canis lupus familiaris, UniProt O77746); experiment: PDE inhibiting activity, type V; type: biochemical, dog; settings: PDE purified from canine aorta, 1 µM substrate cGMP or cAMP
T1 construct: By elution with a sodium chloride gradient (0 - 0.4 M), PDE types V and III were separated from the other isozymes; from tissue; host or cells: canine aorta
Procedure: The canine aorta was minced and homogenized with a Waring Blender and a glass homogenizer in six volumes of a Tris-HCl buffer solution (pH 7.5, 20 mM) containing 2 mM magnesium acetate, 5 mM ethylenediaminetetraacetic acid (EDTA), 100 µg/mL of phenylmethylsulforyl fluoride and 15 mM 2-mercaptoethanol (2-ME), and centrifuged at 1200 x g for 30 min. […] By elution with a sodium chloride gradient (0 - 0.4 M), PDE types V and III were separated from the other isozymes. […] The resulting precipitated fraction was similarly applied to the DEAE-trisacryl column and eluted by a sodium chloride gradient (0 - 0.4 M) so as to separate PDE type I.
Specifically, a purified PDE sample was added to 50 mM Tris-HCl buffer solution (pH 7.5) containing 1 µM of substrate cGMP or cAMP (containing tritium-labelled cGMP or cAMP), 1 mM EGTA and 2 mM magnesium acetate. For PDE activity measurement, enzymatically produced 5' GMP or 5' AMP was further hydrolyzed into guanosine or adenosine with snake venom and separated from the substrate by means of an ion-exchange resin (Dowex 1-X2), followed by measuring with a scintillation counter. […] The final concentration of DMSO was adjusted to be no more than 2% in consideration of the effect on PDE activity.

[3] = tested on: smooth muscle of cavernous body of rabbits; experiment: Enhancement of nitroprusside relaxation of isolated cavernous body strips; settings: relaxation by 1 µM nitroprusside compared with solvent
Procedure: Rabbits were anesthetized by an intravenous injection of 40-50 mg/kg of pentobarbital (Nembutal™ manufactured by Dainippon Pharmaceutical Co., Ltd.), blood was drained out by incision of carotid artery, and penis was taken out and placed in an ice-cooled nutrient solution (Krebs bicarbonate containing 118 mM of NaCl, 4.7 mM of KCl, 1.2 mM of KH2PO4, 1.2 mM of MgSO4.7H2O, 1.5 mM of CaCl2, 25 mM of NaHCO3, 11 mM of glucose and 0.023 mM of EDTA·2Na). After the tissues around the albuginea were incised in a nutrient solution, the albuginea was incised to prepare cavernous body of the penis. The cavernous body was cut and both ends of the strips of about 1 cm length were ligated by nylon yarn. One end was fixed to a supporting rod, transferred into a 20-ml Magnus tube which was filled with the nutrient solution, passed with a mixed gas of 95% oxygen and 5% carbon dioxide and kept at 37 °C while another end of the strip was connected to an isometric transducer (TB-611T; NIHON KOHDEN CORP.) placed on the upper area and a stress load of about 2 g was applied. After stabilization of 60 minutes or longer, strips were contracted with 10 µM of phenylephrine in the presence of 5 µM of guanetidine and 1 µM of atropine and, after stabilization, 1 µM or 100 µM of nitroprusside was added whereby relaxation by nitroprusside was ascertained. […] Rate of relaxation by 1 µM of nitroprusside after addition of the sample was compared with that after addition of the solvent and the increasing rate was calculated. […]

male wistar rats = experiment: Toxicity test, oral administration for four days; settings: 100 mg/kg/day orally for four days
PDE type I = experiment: PDE inhibiting activity, type I; type: biochemical, dog; settings: PDE purified from canine aorta; 1 µM substrate cGMP or cAMP; read-out: Inhibition Activity IC50 (µM) Type I
Procedure: On the basis of the method of Lugnier et al. (Biochem. Pharmacol., 35, 1743-1751, 1986), PDE was purified from the aorta in a dog. The canine aorta was minced and homogenized with a Waring Blender and a glass homogenizer in six volumes of a Tris-HCl buffer solution (pH 7.5, 20 mM) containing 2 mM magnesium acetate, 5 mM ethylenediaminetetraacetic acid (EDTA), 100 µg/mL of phenylmethylsulforyl fluoride and 15 mM 2-mercaptoethanol (2-ME), and centrifuged at 1200 x g for 30 min. The supernatant was separated and salted out with ammonium sulfate which was added to 45% saturation. The resulting precipitated fraction was resuspended in a Tris-HCl buffer solution (pH 7.5, 20 mM) containing 2 mM magnesium acetate and 1 mM 2-ME, dialyzed overnight and applied to a DEAE-trisacryl column (DEAE […] M:IBF). By elution with a sodium chloride gradient (0 - 0.4 M), PDE types V and III were separated from the other isozymes. The supernatant fraction of 45% saturated ammonium sulfate was further mixed with ammonium sulfate to 65% saturation and salted out. The resulting precipitated fraction was similarly applied to the DEAE-trisacryl column and eluted by a sodium chloride gradient (0 - 0.4 M) so as to separate PDE type I.
The thus obtained PDE types V, III and I were measured for their activity in accordance with the method of Thompson et al. (Adv. Cyclic Nucleotide Res., 10, 69-72, 1979) and the method of Wells et al. (Biochim. Biophys. Acta, 384, 430-443, 1975). Specifically, a purified PDE sample was added to 50 mM Tris-HCl buffer solution (pH 7.5) containing 1 µM of substrate cGMP or cAMP (containing tritium-labelled cGMP or cAMP), 1 mM EGTA and 2 mM magnesium acetate. For PDE activity measurement, enzymatically produced 5' GMP or 5' AMP was further hydrolyzed into guanosine or adenosine with snake venom and separated from the substrate by means of an ion-exchange resin (Dowex 1-X2), followed by measuring with a scintillation counter. The activity of each test compound was determined as a percentage of the PDE activity measured when it was added as a dimethyl sulfoxide solution (DMSO) and its IC50 (50% inhibition concentration) was calculated by the probit method. The final concentration of DMSO was adjusted to be no more than 2% in consideration of the effect on PDE activity.

With `CS(=O)(=O)O.O=c1c(Cc2cccnc2)cn2c3cc(Br)ccc3c3cc(OCCCO)cc1c32` [Example 52, 9-bromo-2-(3-hydroxypropyloxy)-5-(3-pyridylmethyl)-4H-pyrido[3,2,1-jk]carbazol-4-one methanesulfonate] the “MAT” value [1] was 7.9 h, the MRT ([1]; plasma, topical) was 8.5 h and the Tmax ([1]; plasma, topical) was 1 h. For the same molecule, the “MRT as compared with oral administration” value [2] was “same”, the “Tmax as compared with oral administration” value [2] was “same or shortened” and the “MAT” value ([2]; Dose 0.3 mg/kg) was 1 to 2 h. For the same molecule, the bioavailability ([2]; plasma) was about 100%, the MRT ([2]; plasma, Dose 0.3 mg/kg) was 2 to 3 h and the Tmax ([2]; plasma, Dose 0.3 mg/kg) was 0.2 to 0.5 h. For the same molecule, the IC50 (PDE type V; read-out: Inhibition Activity IC50 (µM) Type V) was 0.0057 µM, the “Enhancing Rate of Relaxation (%)” value ([3]; Final Added Amount 100 nM) was 90.8% and the “Enhancing Rate of Relaxation (%)” value ([3]; Final Added Amount 1000 nM) was 190.9%. The “abnormal change in body weight and general symptoms” value (male wistar rats) was “no abnormal change” and the dead case (male wistar rats; until the next morning of the completion of the administration) was “no dead case”.

With `CCCc1nn(C)c2c(=O)[nH]c(-c3cc(S(=O)(=O)N4CCN(C)CC4)ccc3OCC)nc12.O=C(O)CC(O)(CC(=O)O)C(=O)O` [sildenafil, 5-[2-ethoxy-5-(4-methylpiperazin-1-ylsulfonyl)phenyl]-1-methyl-3-propyl-6,7-dihydro-1H-pyrazolo[4,3-d]pyrimidin-7-one-citrate, reference compound] the “MAT” value [1] was 14.3 h, the MRT ([1]; in vivo) was 14.7 h and the Tmax ([1]; in vivo) was 1 h. The IC50 (PDE type I) was 0.46 µM, the “MRT as compared with oral administration” value [2] was “same” and the “Tmax as compared with oral administration” value [2] was “same or shortened”. For the same molecule, the “MAT” value ([2]; Dose 1.0 mg/kg) was 1 to 2 h, the bioavailability ([2]; in vivo) was about 100% and the MRT ([2]; in vivo, Dose 1.0 mg/kg) was 2 to 3 h. For the same molecule, the Tmax ([2]; in vivo, Dose 1.0 mg/kg) was 0.2 to 0.5 h, the IC50 (PDE type V; Inhibition Activity IC50 (µM) Type V) was 0.0018 µM and the “Enhancing Rate of Relaxation (%)” value ([3]; Final Added Amount 1000 nM) was 189.1%.
